Assay results: publication PMC6979384, “Characterization of the plant homeodomain (PHD) reader family for their histone tail interactions” (Epigenetics & Chromatin, 2020)

Legend:
[1] = dCypher AlphaScreen Phase A, optimal reader concentration range; format: binding; details: 100 nM biotinylated peptide; 30 min + 60 min at 23 °C; AlphaLISA; n = 2
Method: Fig. 3 dCypher histone peptide-binding assays define the PTM recognition preference of PHD proteins with high sensitivity. a–h Binding curves to determine optimal reader protein concentration for full peptide library screening on the dCypher® AlphaScreen® platform (see “Methods”). X-axes are log(protein concentration (M)) at constant peptide concentration (100 nM); Y-axes are AlphaScreen counts, representing relative strength of binding (n = 2; error bars are S.D.). i Heat map represents relative binding to H3 N-terminal peptides (left) by PHD-containing GST-tagged proteins (top) using the dCypher AlphaScreen platform. Protein concentrations can be found in Additional file 5: Table S4. Binding strength is indicated by color gradient from green to yellow (stronger to weaker). The asterisk (*) by MLL5 signifies its general preference for H3K4 methylation. Alpha counts (n = 2) were normalized individually for each protein to the highest signal for each respective assay. For full dCypher peptide screen data, see Additional file 4: Table S3
We next employed a highly sensitive proximity-based AlphaScreen histone peptide assay (dCypher®) to provide a third and orthogonal approach to analyzing the histone binding preferences for a subset of the 31 PHD proteins with respect to various histone tail PTMs. In this assay, biotinylated peptides are bound to streptavidin “donor” beads and the GST-tagged reader domains bound to Glutathione “acceptor” beads. […] Initial binding assays were conducted for each fusion protein using three peptides [H3 (1–20) with K4me0, H3K4me3 or H3K9me3] to determine the optimal reader domain concentration for full peptide library studies (Fig. 3a–h; Additional file 4: Table S3 and Additional file 5: Table S4). […]
The dCypher peptide screen assay was performed as previously described. […] Plates were incubated at 23 °C in subdued lighting for 60 min and AlphaLISA signal measured on a PerkinElmer 2104 EnVision (680 nm laser excitation, 570 nm emission filter ± 50 nm bandwidth). […]

H3K4me0 readers = test: dCypher AlphaScreen Phase B (full peptide screen), H3K4me0 readers together; format: binding, human; details: 100 nM peptide, 23 °C, n = 2
Method: Fig. 3 dCypher histone peptide-binding assays define the PTM recognition preference of PHD proteins with high sensitivity. a–h Binding curves to determine optimal reader protein concentration for full peptide library screening on the dCypher® AlphaScreen® platform (see “Methods”). X-axes are log(protein concentration (M)) at constant peptide concentration (100 nM); Y-axes are AlphaScreen counts, representing relative strength of binding (n = 2; error bars are S.D.). i Heat map represents relative binding to H3 N-terminal peptides (left) by PHD-containing GST-tagged proteins (top) using the dCypher AlphaScreen platform. Protein concentrations can be found in Additional file 5: Table S4. […]
Once the optimal protein concentration ranges for each of the eight readers were determined, we conducted the full dCypher peptide screen (293 histone peptides) (Fig. 3i; Additional file 4: Table S3).
The dCypher peptide screen assay was performed as previously described. Briefly, 5 μL of GST-tagged reader domains (optimal protein concentration for library screening determined by initial binding curves to candidate peptides) were incubated with 5 μL of 400 nM (100 nM Final) biotinylated histone peptides (EpiCypher) for 30 min at 23 °C in 1× AlphaLISA Epigenetics buffer + epigenetics buffer supplement (PerkinElmer, AL1008) in a 384-well plate. […]

ING3 = test: Histone peptide microarray; format: binding, human; details: sheet "Array Heatmap"; GST-tagged reader; histone peptide array, total n = 4
Outline: (§1)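 Recombinant GST-PHD protein at 0.5 μM; 293-member modified histone peptide array; signals averaged from four repeats ± SD.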

PHF8 = test: Histone peptide microarray; format: binding, human; details: sheet "Array Heatmap"; GST-tagged reader; histone peptide array, total n = 4
Outline: as §1

ING4 = test: Histone peptide microarray; format: binding, human; details: sheet "Array Heatmap"; GST-tagged reader; histone peptide array, total n = 4
Outline: as §1

BAZ2B = test: Histone peptide microarray; format: binding, human; details: sheet "Array Heatmap"; GST-tagged reader; histone peptide array, total n = 4
Outline: as §1

SP140L = test: Histone peptide microarray; format: binding, human; details: sheet "Array Heatmap"; GST-tagged reader; histone peptide array, total n = 4
Outline: as §1

PHF13 = test: Histone peptide microarray; format: binding, human; details: sheet "Array Heatmap"; GST-tagged reader; histone peptide array, total n = 4
Outline: as §1

RAG2 = test: Histone peptide microarray; format: binding, human; details: sheet "Array Heatmap"; GST-tagged reader; histone peptide array, total n = 4
Outline: as §1

AIRE (PP) = test: Histone peptide microarray; format: binding, human; details: sheet "Array Heatmap"; GST-tagged reader; histone peptide array, total n = 4
Outline: as §1

KDM4C (TTP) = test: Histone peptide microarray; format: binding, human; details: sheet "Array Heatmap"; GST-tagged reader; histone peptide array, total n = 4
Outline: as §1

TRIM66 (PB) = test: Histone peptide microarray; format: binding, human; details: sheet "Array Heatmap"; GST-tagged reader; histone peptide array, total n = 4
Outline: as §1

PHF21A = test: Histone peptide microarray; format: binding, human; details: sheet "Array Heatmap"; GST-tagged reader; histone peptide array, total n = 4
Outline: as §1

CHD5 (PPCC) = test: Histone peptide microarray; format: binding, human; details: sheet "Array Heatmap"; GST-tagged reader; histone peptide array, total n = 4
Outline: as §1

PHF2 = test: Histone peptide microarray; format: binding, human; details: sheet "Array Heatmap"; GST-tagged reader; histone peptide array, total n = 4
Outline: as §1

KDM5B (1) = test: Histone peptide microarray; format: binding, human; details: sheet "Array Heatmap"; GST-tagged reader; histone peptide array, total n = 4
Outline: as §1

KDM7A = test: Histone peptide microarray; format: binding, human; details: sheet "Array Heatmap"; GST-tagged reader; histone peptide array, total n = 4
Outline: as §1

TAF3 = test: Histone peptide microarray; format: binding, human; details: sheet "Array Heatmap"; GST-tagged reader; histone peptide array, total n = 4
Outline: as §1

MORC3 (CW) = test: Histone peptide microarray; format: binding, human; details: sheet "Array Heatmap"; GST-tagged reader; histone peptide array, total n = 4
Outline: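 Each reader, produced as a GST fusion and purified, was tested at 0.5 μM on synthetic histone peptides (293 in total) carrying single or combinatorial marks. Intensities averaged over four replicates.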

KDM5A (3) = test: Histone peptide microarray; format: binding, human; details: sheet "Array Heatmap"; GST-tagged reader; histone peptide array, total n = 4
Outline: as §1

CHD4 (PPCC) = test: Histone peptide microarray; format: binding, human; details: sheet "Array Heatmap"; GST-tagged reader; histone peptide array, total n = 4
Outline: as §1

KDM5A (1) = test: Histone peptide microarray; format: binding, human; details: sheet "Array Heatmap"; GST-tagged reader; histone peptide array, total n = 4
Outline: as §1

MLL5 = test: Histone peptide microarray; format: binding, human; details: sheet "Array Heatmap"; GST-tagged reader; histone peptide array, total n = 4
Outline: as §1

ING1 = test: Histone peptide microarray; format: binding, human; details: sheet "Array Heatmap"; GST-tagged reader; histone peptide array, total n = 4
Outline: as §1

BPTF (PB) = test: Histone peptide microarray; format: binding, human; details: sheet "Array Heatmap"; GST-tagged reader; histone peptide array, total n = 4
Outline: as §1

PHRF1 (RP) = test: Histone peptide microarray; format: binding, human; details: sheet "Array Heatmap"; GST-tagged reader; histone peptide array, total n = 4
Outline: as §1

DPF2 (PPC2W2) = test: Histone peptide microarray; format: binding, human; details: sheet "Array Heatmap"; GST-tagged reader; histone peptide array, total n = 4
Outline: as §1

CHD5 (PCC) = test: Histone peptide microarray; format: binding, human; details: sheet "Array Heatmap"; GST-tagged reader; histone peptide array, total n = 4
Outline: as §1

DIDO1 = test: Histone peptide microarray; format: binding, human; details: sheet "Array Heatmap"; GST-tagged reader; histone peptide array, total n = 4
Outline: as §1

PHF23 = test: Histone peptide microarray; format: binding, human; details: sheet "Array Heatmap"; GST-tagged reader; histone peptide array, total n = 4
Outline: as §1

ING2 = test: Histone peptide microarray; format: binding, human; details: sheet "Array Heatmap"; GST-tagged reader; histone peptide array, total n = 4
Outline: as §1

KDM5B (3) = test: Histone peptide microarray; format: binding, human; details: sheet "Array Heatmap"; GST-tagged reader; histone peptide array, total n = 4
Outline: as §1

ING5 = test: Histone peptide microarray; format: binding, human; details: sheet "Array Heatmap"; GST-tagged reader; histone peptide array, total n = 4
Outline: as §1

DIDO1: GST-tagged PHD, 250-340
Phase A Optimal Range (reader concentration) [1]: 0.015 to 0.5 nM

H3K9me3 + S10p: H3 1-20
loss of binding on S10 phosphorylation (H3K4me0 readers): four out of five of the H3K4me0 readers lose binding capacity | Array Heatmap signal, ING3 (ING3): 0.3956 | Array Heatmap signal, PHF8 (PHF8): 0.3127 | Array Heatmap signal, ING4 (ING4): 0.3907 | Array Heatmap signal, BAZ2B (BAZ2B): 0.4277 | Array Heatmap signal, SP140L (SP140L): 0.319 | Array Heatmap signal, PHF13 (PHF13): 0.5317 | Array Heatmap signal, RAG2 (RAG2): 0.2135 | Array Heatmap signal, AIRE (PP) (AIRE (PP)): 0.5449 | Array Heatmap signal, KDM4C (TTP) (KDM4C (TTP)): 0.4574 | Array Heatmap signal, TRIM66 (PB) (TRIM66 (PB)): 0.578 | Array Heatmap signal, PHF21A (PHF21A): 0.4454 | Array Heatmap signal, CHD5 (PPCC) (CHD5 (PPCC)): 0.486 | Array Heatmap signal, PHF2 (PHF2): 0.4043 | Array Heatmap signal, KDM5B (1) (KDM5B (1)): 0.7016 | Array Heatmap signal, KDM7A (KDM7A): 0.3788 | Array Heatmap signal, TAF3 (TAF3): 0.2418 | Array Heatmap signal, MORC3 (CW) (MORC3 (CW)): 0.3534 | Array Heatmap signal, KDM5A (3) (KDM5A (3)): 0.3848 | Array Heatmap signal, CHD4 (PPCC) (CHD4 (PPCC)): 0.5281 | Array Heatmap signal, KDM5A (1) (KDM5A (1)): 0.4357 | Array Heatmap signal, MLL5 (MLL5): 0.5167 | Array Heatmap signal, ING1 (ING1): 0.4648 | Array Heatmap signal, BPTF (PB) (BPTF (PB)): 0.3029 | Array Heatmap signal, PHRF1 (RP) (PHRF1 (RP)): 0.515 | Array Heatmap signal, DPF2 (PPC2W2) (DPF2 (PPC2W2)): 0.6544 | Array Heatmap signal, CHD5 (PCC) (CHD5 (PCC)): 0.7991 | Array Heatmap signal, DIDO1 (DIDO1): 0.5964 | Array Heatmap signal, PHF23 (PHF23): 0.4606 | Array Heatmap signal, ING2 (ING2): 0.5763 | Array Heatmap signal, KDM5B (3) (KDM5B (3)): 0.4113 | Array Heatmap signal, ING5 (ING5): 0.3112

KDM7A: GST-tagged PHD, 1-100
Phase A Optimal Range (reader concentration) [1]: 0.05 to 1 nM

MLL5: GST-tagged PHD, 100-180
Phase A Optimal Range (reader concentration) [1]: 0.015 to 0.05 nM
